Tested on: MV-4-11 cells
Assay: Gene expression microarray analysis (Affymetrix PrimeView) and GSEA
Format: cell-based, human
Design: RFU PODN (11730768_x_at) / Fold change /veh PODN (11730768_x_at) / RFU LINC00158 (11744669_a_at) / Fold change /veh LINC00158 (11744669_a_at) / RFU DUSP10 (11751237_a_at) / Fold change /veh DUSP10 (11751237_a_at) / RFU ID3 (11757404_x_at) / Fold change /veh ID3 (11757404_x_at) / RFU PLEKHG5 (11737974_s_at) / Fold change /veh PLEKHG5 (11737974_s_at) / RFU LRRC4B (11730491_at) / Fold change /veh LRRC4B (11730491_at) / RFU GIMAP4 (11747438_a_at) / Fold change /veh GIMAP4 (11747438_a_at) / RFU KRT8 (11758183_x_at) / Fold change /veh KRT8 (11758183_x_at) / RFU CNN1 (11734310_a_at) / Fold change /veh CNN1 (11734310_a_at) / RFU VPS37D (11726825_at) / Fold change /veh VPS37D (11726825_at) / RFU C10orf10 (11716522_x_at) / Fold change /veh C10orf10 (11716522_x_at) / RFU KIR2DL2 /// KIR2DL4 /// KIR2DL5A /// KIR2DL5B /// KIR2DS1 /// KIR2DS2 /// KIR2DS3 /// KIR2DS4 /// KIR3DL3 /// KIR3DL3 /// KIR3DS1 (11738374_at) / Fold change /veh KIR2DL2 /// KIR2DL4 /// KIR2DL5A /// KIR2DL5B /// KIR2DS1 /// KIR2DS2 /// KIR2DS3 /// KIR2DS4 /// KIR3DL3 /// KIR3DL3 /// KIR3DS1 (11738374_at) / RFU C1QL1 (11718748_at) / Fold change /veh C1QL1 (11718748_at) / RFU TMPRSS4 (11747572_a_at) / Fold change /veh TMPRSS4 (11747572_a_at) / RFU HAMP (11756126_x_at) / Fold change /veh HAMP (11756126_x_at) / RFU RNFT2 (11725882_a_at) / Fold change /veh RNFT2 (11725882_a_at) / RFU NR4A2 (11747474_a_at) / Fold change /veh NR4A2 (11747474_a_at) / RFU ABCC12 (11746883_a_at) / Fold change /veh ABCC12 (11746883_a_at) / RFU TMEM136 (11760407_x_at) / Fold change /veh TMEM136 (11760407_x_at) / RFU CLDN22 /// WWC2 (11732394_at) / Fold change /veh CLDN22 /// WWC2 (11732394_at) / RFU HLA-DPB1 (11760878_x_at) / Fold change /veh HLA-DPB1 (11760878_x_at) / RFU SPINT1 (11716480_a_at) / Fold change /veh SPINT1 (11716480_a_at) / RFU GAP43 (11754022_s_at) / Fold change /veh GAP43 (11754022_s_at) / RFU A4GNT (11735810_at) / Fold change /veh A4GNT (11735810_at) / RFU PRB3 (11715151_x_at) / Fold change /veh PRB3 (11715151_x_at) / RFU TUBB4B (11761932_at) / Fold change /veh TUBB4B (11761932_at) / RFU CAPN14 (11732068_a_at) / Fold change /veh CAPN14 (11732068_a_at) / RFU TMCC2 (11721928_a_at) / Fold change /veh TMCC2 (11721928_a_at) / RFU IRGQ (11745062_a_at) / Fold change /veh IRGQ (11745062_a_at) / RFU FAM174B (11720279_a_at) / Fold change /veh FAM174B (11720279_a_at) / RFU TMPRSS4 (11748680_a_at) / Fold change /veh TMPRSS4 (11748680_a_at) / RFU FAM212B (11763350_a_at) / Fold change /veh FAM212B (11763350_a_at) / RFU PLEKHG5 (11743358_a_at) / Fold change /veh PLEKHG5 (11743358_a_at) / RFU ZSCAN30 (11745921_a_at) / Fold change /veh ZSCAN30 (11745921_a_at) / RFU CMKLR1 (11741424_a_at) / Fold change /veh CMKLR1 (11741424_a_at) / RFU LOC101060620 /// MAPK8IP1 (11723275_at) / Fold change /veh LOC101060620 /// MAPK8IP1 (11723275_at) / RFU SPTSSB (11747773_x_at) / Fold change /veh SPTSSB (11747773_x_at) / RFU PRSS12 (11739890_at) / Fold change /veh PRSS12 (11739890_at) / RFU BIN1 (11741810_x_at) / Fold change /veh BIN1 (11741810_x_at) / RFU WNT11 (11732464_a_at) / Fold change /veh WNT11 (11732464_a_at) / RFU C10orf10 (11716521_a_at) / Fold change /veh C10orf10 (11716521_a_at) / RFU C5orf56 (11738089_at) / Fold change /veh C5orf56 (11738089_at) / RFU CYB561 (11721691_x_at) / Fold change /veh CYB561 (11721691_x_at) / RFU ANKRD19P (11752326_a_at) / Fold change /veh ANKRD19P (11752326_a_at) / RFU OR2T12 /// OR2T33 /// OR2T8 (11738714_s_at) / Fold change /veh OR2T12 /// OR2T33 /// OR2T8 (11738714_s_at) / RFU VCAN (11748164_a_at) / Fold change /veh VCAN (11748164_a_at) / RFU JSRP1 (11732532_at) / Fold change /veh JSRP1 (11732532_at) / RFU KRTAP10-11 (11738290_x_at) / Fold change /veh KRTAP10-11 (11738290_x_at) / RFU MYO3A (11730013_a_at) / Fold change /veh MYO3A (11730013_a_at) / RFU EBF3 (11725865_a_at) / Fold change /veh EBF3 (11725865_a_at) / RFU CAMK2N1 (11719241_x_at) / Fold change /veh CAMK2N1 (11719241_x_at) / RFU C5orf56 (11738088_a_at) / Fold change /veh C5orf56 (11738088_a_at) / RFU OLFML3 (11715873_a_at) / Fold change /veh OLFML3 (11715873_a_at) / RFU LOC100653217 /// NTM (11731650_a_at) / Fold change /veh LOC100653217 /// NTM (11731650_a_at) / RFU MAPK11 (11762145_a_at) / Fold change /veh MAPK11 (11762145_a_at) / RFU FIZ1 (11724087_x_at) / Fold change /veh FIZ1 (11724087_x_at) / RFU OASL (11726364_x_at) / Fold change /veh OASL (11726364_x_at) / RFU SOX15 (11748057_x_at) / Fold change /veh SOX15 (11748057_x_at) / RFU CD79A (11719716_a_at) / Fold change /veh CD79A (11719716_a_at) / RFU HIST1H1D (11736915_at) / Fold change /veh HIST1H1D (11736915_at) / RFU CASKIN2 (11723855_a_at) / Fold change /veh CASKIN2 (11723855_a_at) / RFU LOC730098 (11760151_x_at) / Fold change /veh LOC730098 (11760151_x_at) / RFU OR4N2 (11742367_at) / Fold change /veh OR4N2 (11742367_at) / RFU PRRT2 (11749266_a_at) / Fold change /veh PRRT2 (11749266_a_at) / RFU SNX32 (11753110_a_at) / Fold change /veh SNX32 (11753110_a_at) / RFU CDHR5 (11726645_a_at) / Fold change /veh CDHR5 (11726645_a_at) / RFU RCAN1 (11760418_a_at) / Fold change /veh RCAN1 (11760418_a_at) / RFU FAM167A (11723789_a_at) / Fold change /veh FAM167A (11723789_a_at) / RFU FAM26E (11764081_at) / Fold change /veh FAM26E (11764081_at) / RFU ISYNA1 (11749810_s_at) / Fold change /veh ISYNA1 (11749810_s_at) / RFU ACY1 (11761880_at) / Fold change /veh ACY1 (11761880_at) / RFU 11764098_at / Fold change /veh 11764098_at / RFU SAMD14 (11745864_x_at) / Fold change /veh SAMD14 (11745864_x_at) / RFU NPB (11741838_a_at) / Fold change /veh NPB (11741838_a_at) / RFU TMPRSS6 (11731388_a_at) / Fold change /veh TMPRSS6 (11731388_a_at) / RFU KRTAP10-2 (11738614_at) / Fold change /veh KRTAP10-2 (11738614_at) / RFU ARHGAP8 /// PRR5-ARHGAP8 (11727945_x_at) / Fold change /veh ARHGAP8 /// PRR5-ARHGAP8 (11727945_x_at) / RFU KRTAP5-7 /// NADSYN1 (11734609_at) / Fold change /veh KRTAP5-7 /// NADSYN1 (11734609_at) / RFU RASL12 (11751679_a_at) / Fold change /veh RASL12 (11751679_a_at) / RFU CDKN2B (11736163_a_at) / Fold change /veh CDKN2B (11736163_a_at) / RFU PRF1 (11729649_at) / Fold change /veh PRF1 (11729649_at) / RFU, ZNF638 /// ZNF638-IT1 / Fold change vs veh, ZNF638 /// ZNF638-IT1 / RFU, PANK3 / Fold change vs veh, PANK3 / RFU, SH3YL1 / Fold change vs veh, SH3YL1 / RFU, ZEB2 / Fold change vs veh, ZEB2 / RFU, NRIP1 / Fold change vs veh, NRIP1 / RFU, PTTG1IP / Fold change vs veh, PTTG1IP / RFU, CAPN2 / Fold change vs veh, CAPN2 / RFU, MED14 / Fold change vs veh, MED14 / RFU, SNORA58 / Fold change vs veh, SNORA58 / RFU, C1orf63 / Fold change vs veh, C1orf63 / RFU, LRRFIP1 / Fold change vs veh, LRRFIP1 / RFU, NDUFAF7 / Fold change vs veh, NDUFAF7 / RFU, SLC12A2 / Fold change vs veh, SLC12A2 / RFU, IBTK / Fold change vs veh, IBTK / RFU, ESF1 / Fold change vs veh, ESF1 / Fold change vs veh, TMEM50B / RFU, TAOK1 / Fold change vs veh, TAOK1 / RFU, ACBD3 / Fold change vs veh, ACBD3 / RFU, TMA16 / Fold change vs veh, TMA16 / RFU, RWDD3 / Fold change vs veh, RWDD3 / RFU, BCAT1 / Fold change vs veh, BCAT1 / RFU, EDEM3 / Fold change vs veh, EDEM3 / RFU, TMEM33 / Fold change vs veh, TMEM33 / RFU, WDR75 / Fold change vs veh, WDR75 / RFU, AHCTF1 / Fold change vs veh, AHCTF1 / RFU, TFRC / Fold change vs veh, TFRC / RFU, ZDHHC17 / Fold change vs veh, ZDHHC17 / RFU, NOM1 / Fold change vs veh, NOM1 / RFU, ARL8B / Fold change vs veh, ARL8B / RFU, ZBTB11 / Fold change vs veh, ZBTB11 / RFU, TAMM41 / Fold change vs veh, TAMM41 / RFU, KIAA1704 /// LOC100996395 / Fold change vs veh, KIAA1704 /// LOC100996395 / RFU, ING1 / Fold change vs veh, ING1 / RFU, TRMT61B / Fold change vs veh, TRMT61B / RFU, FUBP3 / Fold change vs veh, FUBP3 / RFU, TP53 / Fold change vs veh, TP53 / RFU, TNKS2 / Fold change vs veh, TNKS2 / RFU, ZFP14 / Fold change vs veh, ZFP14 / RFU, ACTR2 / Fold change vs veh, ACTR2 / RFU, PPP3R1 / Fold change vs veh, PPP3R1 / RFU, PIK3R1 / Fold change vs veh, PIK3R1 / RFU, HNRNPA1 / Fold change vs veh, HNRNPA1 / RFU, RNF170 / Fold change vs veh, RNF170 / RFU, ZNF28 / Fold change vs veh, ZNF28 / RFU, RNGTT / Fold change vs veh, RNGTT / RFU, OGT / Fold change vs veh, OGT / RFU, BRD1 / Fold change vs veh, BRD1 / RFU, MARS / Fold change vs veh, MARS / RFU, ZNF655 / Fold change vs veh, ZNF655 / RFU, FAHD1 / Fold change vs veh, FAHD1 / RFU, BDP1 / Fold change vs veh, BDP1 / RFU, LRRCC1 / Fold change vs veh, LRRCC1 / RFU, ARID1A / Fold change vs veh, ARID1A / RFU, ZNF146 / Fold change vs veh, ZNF146 / RFU, ZNF330 / Fold change vs veh, ZNF330 / RFU, GPN3 / Fold change vs veh, GPN3 / RFU, C9orf123 / Fold change vs veh, C9orf123 / RFU, N4BP2L2 / Fold change vs veh, N4BP2L2 / RFU, ARFIP1 / Fold change vs veh, ARFIP1 / RFU, FAM179B / Fold change vs veh, FAM179B / RFU, BCL10 / Fold change vs veh, BCL10 / RFU, UHRF1BP1L / Fold change vs veh, UHRF1BP1L / RFU, BET1 / Fold change vs veh, BET1 / RFU, CNOT2 / Fold change vs veh, CNOT2 / RFU, ZNF268 / Fold change vs veh, ZNF268 / Fold change vs veh, ZNF507 / RFU, DGCR2 / Fold change vs veh, DGCR2 / RFU, WDSUB1 / Fold change vs veh, WDSUB1 / Fold change vs veh, HSP90B1 /// MIR3652 / RFU, ADSS / Fold change vs veh, ADSS / RFU, GK / Fold change vs veh, GK / RFU, ZNF148 / Fold change vs veh, ZNF148 / RFU, TAF9 / Fold change vs veh, TAF9 / RFU, SLC1A5 / Fold change vs veh, SLC1A5 / RFU, SLMO2 / Fold change vs veh, SLMO2 / RFU, ABCC4 / Fold change vs veh, ABCC4 / RFU, LOC101060439 /// RAP1B / Fold change vs veh, LOC101060439 /// RAP1B / RFU, RFX7 / Fold change vs veh, RFX7 / RFU, GTPBP10 / Fold change vs veh, GTPBP10 / RFU, CNEP1R1 / Fold change vs veh, CNEP1R1 / RFU, BIVM-ERCC5 /// ERCC5 / Fold change vs veh, BIVM-ERCC5 /// ERCC5 / RFU, ILF3 / Fold change vs veh, ILF3 / RFU 11762660_at / Fold change /veh 11762660_at / RFU VCAN (11757783_s_at) / Fold change /veh VCAN (11757783_s_at) / RFU DDX43 (11728927_at) / Fold change /veh DDX43 (11728927_at) / RFU KRT8 (11758188_x_at) / Fold change /veh KRT8 (11758188_x_at) / RFU NKD1 (11759106_at) / Fold change /veh NKD1 (11759106_at) / RFU SRD5A1 (11742802_a_at) / Fold change /veh SRD5A1 (11742802_a_at) / RFU TPSAB1 /// TPSB2 (11721975_s_at) / Fold change /veh TPSAB1 /// TPSB2 (11721975_s_at) / RFU GSTM3 (11746129_a_at) / Fold change /veh GSTM3 (11746129_a_at) / RFU IL23R (11737362_x_at) / Fold change /veh IL23R (11737362_x_at) / RFU TMEM51 (11727254_a_at) / Fold change /veh TMEM51 (11727254_a_at) / RFU PIWIL2 (11732686_x_at) / Fold change /veh PIWIL2 (11732686_x_at) / RFU ORM1 (11744905_x_at) / Fold change /veh ORM1 (11744905_x_at) / RFU CCDC152 (11743942_at) / Fold change /veh CCDC152 (11743942_at) / RFU ECM1 (11717891_a_at) / Fold change /veh ECM1 (11717891_a_at) / RFU IL23R (11748794_a_at) / Fold change /veh IL23R (11748794_a_at) / RFU TNFAIP8L3 (11732012_x_at) / Fold change /veh TNFAIP8L3 (11732012_x_at) / RFU MBOAT4 (11741988_at) / Fold change /veh MBOAT4 (11741988_at) / RFU 11764193_at / Fold change /veh 11764193_at / RFU TMEM53 (11763286_at) / Fold change /veh TMEM53 (11763286_at) / RFU MAGEB2 (11727129_at) / Fold change /veh MAGEB2 (11727129_at) / RFU TMEM200A (11744735_a_at) / Fold change /veh TMEM200A (11744735_a_at) / RFU CCDC152 (11751479_a_at) / Fold change /veh CCDC152 (11751479_a_at) / RFU FAM211A (11726209_a_at) / Fold change /veh FAM211A (11726209_a_at) / RFU RGS16 (11746705_a_at) / Fold change /veh RGS16 (11746705_a_at) / RFU VCAN (11755009_s_at) / Fold change /veh VCAN (11755009_s_at) / RFU RHOB (11743442_s_at) / Fold change /veh RHOB (11743442_s_at) / RFU RGS16 (11720943_a_at) / Fold change /veh RGS16 (11720943_a_at) / RFU RGS16 (11720944_at) / Fold change /veh RGS16 (11720944_at) / RFU, VPS4B / Fold change vs veh, VPS4B / RFU, CREB1 / Fold change vs veh, CREB1 / RFU, DNAJC13 / Fold change vs veh, DNAJC13 / RFU, GNAQ / Fold change vs veh, GNAQ / RFU, CDK5R1 / Fold change vs veh, CDK5R1 / RFU, ZRANB3 / Fold change vs veh, ZRANB3 / RFU, CUL4A / Fold change vs veh, CUL4A / RFU, CCNY / Fold change vs veh, CCNY / RFU, UFL1 / Fold change vs veh, UFL1 / RFU, COG3 / Fold change vs veh, COG3 / RFU, DIAPH2 / Fold change vs veh, DIAPH2 / RFU, SKA2 / Fold change vs veh, SKA2 / RFU, AFF3 / Fold change vs veh, AFF3 / RFU, LMF1 / Fold change vs veh, LMF1 / RFU, IPO11 / Fold change vs veh, IPO11 / RFU, DFFB / Fold change vs veh, DFFB / RFU, FOXP1 / Fold change vs veh, FOXP1 / RFU, CARD8 / Fold change vs veh, CARD8 / RFU, STRN3 / Fold change vs veh, STRN3 / RFU, ADK / Fold change vs veh, ADK / RFU, RASSF2 / Fold change vs veh, RASSF2 / RFU, WIPF1 / Fold change vs veh, WIPF1 / RFU, LARP1B / Fold change vs veh, LARP1B / RFU, RASA1 / Fold change vs veh, RASA1 / RFU, RB1 / Fold change vs veh, RB1 / RFU, PPFIA1 / Fold change vs veh, PPFIA1 / RFU, MAT2A / Fold change vs veh, MAT2A / RFU, CCT5 / Fold change vs veh, CCT5 / RFU, WDR92 / Fold change vs veh, WDR92 / RFU, CUX1 / Fold change vs veh, CUX1 / RFU, TTC7A / Fold change vs veh, TTC7A / RFU, TMEM135 / Fold change vs veh, TMEM135 / RFU, DEPTOR / Fold change vs veh, DEPTOR / RFU, CPM / Fold change vs veh, CPM / RFU, DNAJB6 / Fold change vs veh, DNAJB6 / RFU, CACNA2D3 / Fold change vs veh, CACNA2D3 / RFU, DTX4 / Fold change vs veh, DTX4 / RFU, TFCP2 / Fold change vs veh, TFCP2 / RFU, GMCL1 /// GMCL1P1 / Fold change vs veh, GMCL1 /// GMCL1P1 / RFU, AEBP2 / Fold change vs veh, AEBP2 / RFU, SNHG1 /// SNORD22 /// SNORD25 /// SNORD26 /// SNORD27 /// SNORD28 /// SNORD29 /// SNORD31 / Fold change vs veh, SNHG1 /// SNORD22 /// SNORD25 /// SNORD26 /// SNORD27 /// SNORD28 /// SNORD29 /// SNORD31 / Fold change (Aza/veh), C12orf56 (ProbeSet 11735607_a_at) / Fold change (ACY-1035/veh), C12orf56 (ProbeSet 11735607_a_at) / Fold change (Aza/veh), FGFR1OP (ProbeSet 11751329_s_at) / Fold change (ACY-1035/veh), FGFR1OP (ProbeSet 11751329_s_at) / Fold change (Aza/veh), VPS36 (ProbeSet 11739960_a_at) / Fold change (ACY-1035/veh), VPS36 (ProbeSet 11739960_a_at) / RFU SYPL1 (11715823_x_at) / Fold change /veh SYPL1 (11715823_x_at) / RFU IGFBP7 (11715501_s_at) / Fold change /veh IGFBP7 (11715501_s_at) / RFU REEP3 (11722064_at) / Fold change /veh REEP3 (11722064_at) / RFU IGLL1 (11728026_x_at) / Fold change /veh IGLL1 (11728026_x_at): dose or concentration left out as unconfirmed
Conditions: MV-4-11 cells, 48 hours

## Nc1ncn([C@@H]2O[C@H](CO)[C@@H](O)[C@H]2O)c(=O)n1 [azacitidine]
  Fold change /veh PRB3 (11715151_x_at): 0.94

— publication PMC5218480 (PLoS ONE, 2017)
